The values that follow come from patent US12522614B2, “Topical phosphoinositide 3-kinase inhibitors” (VENTHERA, INC., priority 2019, dated 2026).

A short description of series [1]: Viscosity of topical formulation as prepared. The class given is physicochemical. To be noted: gel formulation of Example 8 (Table 2). As to the method:
The liquid excipients, i.e. DMSO, oleic acid, Transcutol® P, and dipropylene glycol were mixed in a 20-mL vial, by vortex agitation. The active ingredient, a compound of formula (I), for example Compound 1.002 was then added, and the vial content was sonicated for 10 minutes to dissolve the compound. […] Hydroxylpropyl cellulose (HPC) was added, and the vial was agitated by vortex for another ten minutes to obtain the gel formulation. The viscosity of the clear gel was measured to be in a range of about 7,000 to 10,000 centipoise (cp).
A solution formulation was prepared, similar to the gel formulations as described in Example 8, without a thickening agent. The viscosity of the solution was 13.4 cp and it can be used as a topical spray or lotion.

Series [2] can be described thus: In vitro human skin permeation study of topical gel formulations (Franz diffusion cells). As to conditions: Study-1, Example 8 gel, human skin. The class given is in vitro ADME. The source says:
The gel formulation of Example 8 was used as the donor phase to determine the permeation of Compound 1.002 through human skin and its effectiveness as a topical application. Three skin donors and three diffusion cells (for each donor) per formulation were used in the in vitro skin permeation experiments. Split thickness dermatomed (approximately at […] thickness) human cadaver skin, supplied by New York Firefighters Skin Bank, NY, was used to determine the permeation rate of the tested compound (i.e., the drug) in vitro. All in vitro skin permeation studies were conducted using the Vertical Diffusion Cells assembly with consoles (Model FDC-6), and heating controllers (Logan Instruments Inc. Somerset, NJ). Each assembly consisted of six vertical, jacketed (37° C.±0.5° C.) 12-mL Franz diffusion cells with magnetic stirrer and 1.767 cm^2 diffusion area.
Skin flux studies were run for a period of 48 hours. At predetermined intervals (2, 4, 8, 24 and 48 hours) after starting the experiment, the entire contents of the receiver compartment were collected for determining concentrations of the drug by HPLC. The receiver compartment was refilled with fresh receiver medium. The receiver medium was pH 7.4 phosphate buffer with 0.5 mg/ml of Oleath 20 with the saturation concentration of the drug in the receptor medium being 0.152 mg/ml. This solubility of the drug in the receiver medium was enough to ensure sink conditions throughout each collection interval.
Samples of the receptor phase were obtained at 2, 4, 8, 12, 24 and 48 h and concentrations of Compound 1.002 and 3-(4-morpholinothieno(3,2-d)pyrimidin-2-yl)phenol (metabolite of Compound 1.002, abbreviated as MTPP) were determined using a validated HPLC method. The metabolism of Compound 1.002 to MTPP takes place in the human skin by esterase enzymes.
HPLC method: Column—Gemini C-18 4.6×150 mm, 5 μm particle size; Mobile Phase—water:acetonitrile 25:75 containing 0.1% TFA; Flow Rate—1 mL/min; Detection—274 nm; Column Temperature—40° C.; and Run Time—10 min. The retention times for MTPP and Compound 1.002 were 3.9 and 7.2 minutes, respectively.
The skin flux of drugs and cumulative amount of drugs permeated (sum of MTPP and Compound 1.002) for a period of 48 hours were calculated and are shown in Table 3. FIG. 3 represents a plot of Cumulative amount permeated versus time.

With `CC(=O)Oc1cccc(-c2nc(N3CCOCC3)c3sccc3n2)c1` [Compound 1.002, 3-(4-Morpholinothieno[3,2-d]pyrimidin-2-yl)phenyl Acetate], the “Viscosity of the clear gel” value in series [1] is given as 7,000 to 10,000 centipoise (cp). Moreover, the “Hydrolysis of Cmpd. 1.002 to MTPP” value in series [2] (Donor 2, 4 h) came out at 100%. The “Cumulative permeation, Cmpd. 1.002” value in series [2] (Donor 3, 2 h) was determined as 0.00 μg/cm^2.
